Experimental data taken from patent US5041426A, “Immune system enhancing 3-β-d-ribofuranosylthiazolo[4,5-d]pyridimine nucleosides and nucleotides” (priority 1988, dated 1991).
Where “and” joins values, the source holds several entries; their conditions need not be identical. Identical values can stand only once. Like-named read-outs stand apart in the source and are kept apart here.

Experiments:
Friend Leukemia virus = Friend Leukemia virus induced spleenomegaly; type: in vivo; conditions: further test
Text: As is evident from the above tables antiviral activity against a variety of viruses is seen.

San Angelo Virus = type: in vivo, mouse; conditions: for Mean Survival Time: Time (21 days)
K562 tumor cells = assay: In vitro augmentation of human natural killer cell activity (PBMNC, 51Cr release); type: cell-based; design: % Increase in Induced Natural Killer Cell Activity: concentration or dose not given beside the values
Method: The natural killer cell activity in human cells was also measured. In conducting these tests peripheral blood mononuculear cells (PBMNC) were isolated on Ficoll-Hypaque gradient, washed three times in Hanks and re-suspended in RPMI-1640 containing 10% human AB serum as described in Rosenberg, S. A.: Journal American Medical Association, 256:3117, 1986 and the above referred to reference to Djeu, et al. Peripheral blood mononuclear cells (PBMNC) from eleven different donors were treated with compound 7 as described in Djeu, et al. as well as Sharma, B., Odom, L. F.: Cancer Immunol. Immunother. 7.93, 1979, and Sharma, B., Odom, L. F.: Cancer Research 44:3258, 1984.
The PBMNC cells were incubated with compound 7 at 37° C. for 20 to 68 hours in a 5% CO2 humid atmosphere and after incubation the cytotoxicity was determined against K562 tumor cells.
^a Peripheral blood mononuclear cells were treated with 0.05 - 0.4 mM
concentration of compound 7 in RPM11640 containing 10% human AB serum for
20 to 68 hours. After the treatment, effector cells were tested against
K562 target cells in 4 hour ^51 Cr release assay as described in
Sharma et al. above. The data shown here represent the maximum response.
K562 target cells in 4 hour ^51 Cr release assay as previously
described above in Sharma et al. The data represent the maximum response.
Other Nucleosides and Nucleotides of the invention were tested for their activity in human natural killer cells […] as per example 33 above.

sheep red blood cells = assay: Primary anti-sheep red blood cell antibody response in mice (plaque assay); type: in vivo, mouse; conditions: C57BL/6, + SRBC, day 6
Method: Compound 7 was tested to determine its effects on primary antibody response against sheep red blood cells in vivo. Mice (C57BL/6) in groups of 4 were injected intraperitoneally with 0.1% sheep red blood cell suspended in saline. At various times compound 7 in various concentrations was administered intraperitoneally.
^a Groups of four C57BL/6 mice were injected i.p. with 6.5 ×
10^6 SRBC and various doses of compound 7. The number of PFC to SRBC
(shown as mean ± SD) were determined on day 6 as described in Cheever.
For Table 9 the number of antibody cells was determined by the modified Jerne, Nordin plaque assay as disclosed in Jerne, N. K., Nordin, A. A., Science 140:405, 1963.

P388 = assay: Response of P388 inoculated mice to various dosages, inocula and schedules; type: in vivo, mouse
Text: For this example varying concentrations of the number of test cells utilized for P388 inoculum and concentrations of compound 7 were utilized with various schedules of drug administration.
^a P388 ascites cells were implanted ip in the concentrations
indicated in BDF1 female mice on day 0, and ip bolus injections of
drug were delivered once daily on the days indicated in the conentrations
indicated. Control mice received a 0.09% solution of NaCl delivered on th

[1] = test system: Herpes Simplex Virus Type 1; assay: Antiviral activity against Herpes simplex virus type 1 infection in mice; type: in vivo, mouse; conditions: at -48, -24, and -2 h
YAC-1 tumor target cells = assay: In vivo potentiation of natural killer cell activity in CBA/CaJ mice (spleen cells); conditions: for % Natural Killer Cytotoxicity: 1.68 mg/mouse i.p.
Method: After 1, 2, 3 and 4 days of treatment the spleens of the mice were harvested and the cytotoxic activity of the spleen cells was determined against YAC-1 tumor target cells in the above referred to ^51 Cr release assay as identified in EXAMPLE 32.
(1.68 mg/mouse) by intraperitoneal route.
Each value represents mean ±SD cytotoxic activity of three mice

Nc1nc2c(sc(=O)n2[C@@H]2O[C@H](CO)[C@@H](O)[C@H]2O)c(=O)[nH]1 [Compound 7, 5-Amino-3-β-D-ribofuranosylthiazolo[4,5-d]pyrimidine-2,7(6H)-dione]
antiviral activity against Friend Leukemia virus induced spleenomegaly (Friend Leukemia virus): little or no antiviral activity | Mean Survival Time (San Angelo Virus; 50 mg/kg/day, once a day at -2 h and days 2, 4, 6): > 13.0 ± 0.0 days | Mean Survival Time (San Angelo Virus; 100 mg/kg/day, once a day at -2 h and days 2, 4, 6): > 21 days | Mean Survival Time (San Angelo Virus; 200 mg/kg/day, -2 h and days 2, 4, 6, half daily doses twice a day): > 21 days | Mean Survival Time (San Angelo Virus; 200 mg/kg/day, half-daily doses at 24 and 16 h pre-virus (prophylactic)): > 21 days | antiviral activity compared with Ribavirin (San Angelo Virus; therapeutic and prophylactic mode): antiviral activity equal to that of Ribavirin | % Natural Killer Cell Cytotoxicity, + Compound 7 (K562 tumor cells; 0.05 - 0.4 mM, 20 to 68 h, maximum response, donors 1 to 11, one line per donor in order): 91% and 29% and 54% and 47% and 16% and 18% and 10% and 22% and 15% and 20% and 32% | tests with an increase in the mediated potentiation (K562 tumor cells; Donor 1, Table 2b): eight of the eight tests | tests with an increase in the mediated potentiation (K562 tumor cells; Donor 2, Table 2b): six of six tests | mean natural killer cell cytotoxicity (K562 tumor cells; PBMNC from eleven donors pretreated with compound 7 (untreated mean 11.7%)): 32.2% | % Natural Killer Cell Cytotoxicity (K562 tumor cells; Table 22, 0.2 mM): 10% | % Increase in Induced Natural Killer Cell Activity (K562 tumor cells; donors 1 to 11, one line per donor in order): 1031% and 548% and 220% and 88% and 123% and 141% and 167% and 150% and 0% and 63% and 8% | potentiation in natural killer cell cytotoxicity (K562 tumor cells; eight of eleven donors): over 100% | PFC/10^6 Spleen Cells (sheep red blood cells; 1.9 mg i.p.): 143 ± 140 PFC/10^6 Spleen Cells | PFC/10^6 Spleen Cells (sheep red blood cells; 2.97 mg i.p.): 307 ± 156 PFC/10^6 Spleen Cells and 165 ± 28 PFC/10^6 Spleen Cells | PFC/10^6 Spleen Cells (sheep red blood cells; 3.3 mg i.p.): 176 ± 105 PFC/10^6 Spleen Cells | PFC/10^6 Spleen Cells (sheep red blood cells; 4.95 mg i.p.): 467 ± 170 PFC/10^6 Spleen Cells and 433 ± 172 PFC/10^6 Spleen Cells | PFC/10^6 Spleen Cells (sheep red blood cells; 4.97 mg i.p.): 371 ± 56 PFC/10^6 Spleen Cells | groups showing an increase in life span (P388; 26 of the 34 groups): 76% | % Increased Life Span (P388; Study 1, 1 × 10^2 cells, 37 mg/kg/inj day 1-9): 0% | % Increased Life Span (P388; Study 1, 1 × 10^2 cells, 37 mg/kg/inj day 1, 3 mice, printed as cures): 2 cures | % Increased Life Span (P388; Study 1, 1 × 10^2 cells, 62 mg/kg/inj day 1-9): 33% | % Increased Life Span (P388; Study 1, 1 × 10^2 cells, 62 mg/kg/inj day 1, 3 mice, printed as cures): 1 cure | % Increased Life Span (P388; Study 1, 1 × 10^2 cells, 104 mg/kg/inj day 1): 0% | % Increased Life Span (P388; Study 1, 1 × 10^2 cells, 104 mg/kg/inj day 1-9): 10% | % Increased Life Span (P388; Study 2, 1 × 10^2 cells, 8 mg/kg/inj day 1): 9% | % Increased Life Span (P388; Study 2, 1 × 10^2 cells, 13 mg/kg/inj day 1): 7% | % Increased Life Span (P388; Study 2, 1 × 10^2 cells, 22 mg/kg/inj day 1): 7% | % Increased Life Span (P388; Study 2, 1 × 10^2 cells, 37 mg/kg/inj day 1): 3% | % Increased Life Span (P388; Study 3, 1 × 10^4 cells, 37 mg/kg/inj day 1): 2% | % Increased Life Span (P388; Study 3, 1 × 10^4 cells, 37 mg/kg/inj day 1-9): 0% | % Increased Life Span (P388; Study 3, 1 × 10^4 cells, 62 mg/kg/inj day 1): 0% | % Increased Life Span (P388; Study 3, 1 × 10^4 cells, 62 mg/kg/inj day 1-9): 2% | % Increased Life Span (P388; Study 3, 1 × 10^4 cells, 104 mg/kg/inj day 1): 0% | % Increased Life Span (P388; Study 3, 1 × 10^4 cells, 104 mg/kg/inj day 1-9): 6% | % Increased Life Span (P388; Study 4, 1 × 10^6 cells, 37 mg/kg/inj day 1): 0% | % Increased Life Span (P388; Study 4, 1 × 10^6 cells, 37 mg/kg/inj day 1-9): 5% | % Increased Life Span (P388; Study 4, 1 × 10^6 cells, 62 mg/kg/inj day 1): 0% | % Increased Life Span (P388; Study 4, 1 × 10^6 cells, 62 mg/kg/inj day 1-9): 5% | % Increased Life Span (P388; Study 4, 1 × 10^6 cells, 104 mg/kg/inj day 1): 9% | % Increased Life Span (P388; Study 4, 1 × 10^6 cells, 104 mg/kg/inj day 1-9): 23% | % Increased Life Span (P388; Study 5, 1 × 10^6 cells, 37 mg/kg/inj day 2): 0% | % Increased Life Span (P388; Study 5, 1 × 10^6 cells, 37 mg/kg/inj day 2,4): 8% | % Increased Life Span (P388; Study 5, 1 × 10^6 cells, 37 mg/kg/inj day 2-6): 8% | % Increased Life Span (P388; Study 5, 1 × 10^6 cells, 62 mg/kg/inj day 2): 5% | % Increased Life Span (P388; Study 5, 1 × 10^6 cells, 62 mg/kg/inj day 2,4): 8% | % Increased Life Span (P388; Study 5, 1 × 10^6 cells, 62 mg/kg/inj day 2-6): 15% | % Increased Life Span (P388; Study 5, 1 × 10^6 cells, 104 mg/kg/inj day 2): 10% | % Increased Life Span (P388; Study 5, 1 × 10^6 cells, 104 mg/kg/inj day 2,4): 5% | % Increased Life Span (P388; Study 5, 1 × 10^6 cells, 104 mg/kg/inj day 2-6): 12% | toxicity (P388; Study 6, 140 mg/kg/inj day 2,4,6,8, 7 mice): toxic in one animal | % Increased Life Span (P388; Study 6, 1 × 10^6 cells, 140 mg/kg/inj day 2): 4% | % Increased Life Span (P388; Study 6, 1 × 10^6 cells, 140 mg/kg/inj day 2,4,6,8): 21% | % Increased Life Span (P388; Study 6, 1 × 10^6 cells, 140 mg/kg/inj day 2,6): 20% | Mean Survival Time ([1]; 50 mg/kg/day): 14.8 ± 5.0 days | Mean Survival Time ([1]; 100 mg/kg/day): 11.4 ± 1.8 days | Mean Survival Time ([1]; 200 mg/kg/day): 11.0 ± 1.7 days | % Natural Killer Cytoxicity (YAC-1 tumor target cells; 0.84 mg i.p., E:T 50:1): 38 ± 7% | % Natural Killer Cytoxicity (YAC-1 tumor target cells; 0.84 mg i.p., E:T 100:1): 48 ± 9% | % Natural Killer Cytoxicity (YAC-1 tumor target cells; 0.84 mg i.p., E:T 150:1): 56 ± 8.5% | increase in natural killer cell activity (YAC-1 tumor target cells; 0.84 mg to 3.36 mg per mouse): all doses of compound 7 induced a marked increase in natural killer cell activity | % Natural Killer Cytoxicity (YAC-1 tumor target cells; 1.68 mg i.p., E:T 50:1 (Table 4)): 44 ± 8% | % Natural Killer Cytoxicity (YAC-1 tumor target cells; 1.68 mg i.p., E:T 100:1 (Table 4)): 56 ± 12% | % Natural Killer Cytoxicity (YAC-1 tumor target cells; 1.68 mg i.p., E:T 150:1 (Table 4)): 61 ± 14% | % Natural Killer Cytotoxicity (YAC-1 tumor target cells; 1 day after treatment, E:T 50:1): 53 ± 5% | % Natural Killer Cytotoxicity (YAC-1 tumor target cells; 1 day after treatment, E:T 100:1): 64 ± 5% | % Natural Killer Cytotoxicity (YAC-1 tumor target cells; 1 day after treatment, E:T 150:1): 71 ± 9% | % Natural Killer Cytotoxicity (YAC-1 tumor target cells; 2 days after treatment, E:T 50:1): 46 ± 9% | % Natural Killer Cytotoxicity (YAC-1 tumor target cells; 2 days after treatment, E:T 100:1): 64 ± 5% | % Natural Killer Cytotoxicity (YAC-1 tumor target cells; 2 days after treatment, E:T 150:1): 65 ± 7% | % Natural Killer Cytotoxicity (YAC-1 tumor target cells; 3 days after treatment, E:T 50:1): 38 ± 6.6% | % Natural Killer Cytotoxicity (YAC-1 tumor target cells; 3 days after treatment, E:T 100:1): 50 ± 7% | % Natural Killer Cytotoxicity (YAC-1 tumor target cells; 3 days after treatment, E:T 150:1): 63 ± 6% | % Natural Killer Cytotoxicity (YAC-1 tumor target cells; 4 days after treatment, E:T 50:1): 30 ± 0.1% | % Natural Killer Cytotoxicity (YAC-1 tumor target cells; 4 days after treatment, E:T 100:1): 37 ± 1.5% | % Natural Killer Cytotoxicity (YAC-1 tumor target cells; 4 days after treatment, E:T 150:1): 48 ± 3% | % Natural Killer Cytoxicity (YAC-1 tumor target cells; 2.52 mg i.p., E:T 50:1): 48 ± 6.6% | % Natural Killer Cytoxicity (YAC-1 tumor target cells; 2.52 mg i.p., E:T 100:1): 62 ± 7% | % Natural Killer Cytoxicity (YAC-1 tumor target cells; 2.52 mg i.p., E:T 150:1): 70 ± 5% | % Natural Killer Cytoxicity (YAC-1 tumor target cells; 3.36 mg i.p., E:T 50:1): 48 ± 4.6% | % Natural Killer Cytoxicity (YAC-1 tumor target cells; 3.36 mg i.p., E:T 100:1): 67 ± 10% | % Natural Killer Cytoxicity (YAC-1 tumor target cells; 3.36 mg i.p., E:T 150:1): 74 ± 6.4% | Emax (YAC-1 tumor target cells; Mus musculus, YAC-1, 24 h, read-out: maximum response, increase in natural killer cell activity): 382% | increase in natural killer cell activity (YAC-1 tumor target cells; single injection 1.68 mg per mouse, after 4 days): More than a two fold increase
